According to patent US12129487B2, “Method to obtain lymphoid progenitors” (INSERM (Institute National de la Santé et de la Recherche …, priority 2017, dated 2024):

Legend:
LSK SLAM (HSCs) or MPPs = assay: In vitro differentiation assay of purified LSK SLAM or MPPs in cytokine-supplemented feeder-free media; type: cell-based, mouse
MPPs = assay: Impact of CXCL12 concentrations on lymphoid commitment of purified MPPs in vitro; type: cell-based, mouse; settings: WT MPPs, CXCL12 1 to 1,000 ng/ml at start, day 4 (FIG. 3)
Description: Purified MPPs were seeded at 450 cells into a 96-well tissue culture plate in DMEM medium supplemented with 10% FBS, 1% penicillin, and the following cytokines: mouse SCF (50 ng/mL), mouse IL-3 (10 ng/mL), human IL-6 (10 ng/mL), mouse IL-7 (5 ng/mL), and human Flt3 (5 ng/mL). Different concentrations of CXCL12 ranging from 1 to 1,000 ng/ml were added at the start of the culture. Cells were cultured at 37° C. in a humidified atmosphere containing 5% CO2, and were harvested after 4 days of culture to analyze HSPCs by flow cytometry.

Description for circulating HSPCs: One hour later, peripheral blood was harvested, analyzed by flow cytometry and tested for CFU-C assays.

Compound | absolute numbers of circulating HSPCs (circulating HSPCs; WT mice, single intra-peritoneal injection (5 mg/kg), one hour after injection, blood) | absolute numbers of HSPCs in the blood (circulating HSPCs; mutant (Cxcr4 1013-bearing) mice, single intra-peritoneal injection, one hour, reaching that of untreated WT mice) | appearance of LMPPs (LSK SLAM (HSCs) or MPPs; 100 ng/mL added at start of culture of MPPs, regardless of Cxcr4 genotype, less pronounced among mutant cells) | proportions and numbers of Cxcr4 1013-bearing MPPs (LSK SLAM (HSCs) or MPPs; 100 ng/mL added at start of culture, mutant cells, days 2 and 4 (FIGS. 1 and 2)) | myeloid-biased MPP2 proportions and numbers (MPPs) | myeloid-biased MPP3 proportions and numbers (MPPs) | proportions and absolute numbers of MPPs (MPPs) | proportions and absolute numbers of lymphoid-biased MPP4 (MPPs)
c1cc(CN2CCCNCCNCCCNCC2)ccc1CN1CCCNCCNCCCNCC1 [AMD3100] | significant increase | increased | – | – | – | – | – | –
CXCL12: C-X-C motif chemokine 12, natural ligand of CXCR4, added to the culture medium | – | – | promoted the appearance of LMPPs | further enhanced | decrease | decrease | significant and dose-dependent increase | significant and dose-dependent increase
